Assay results: patent US8927760B2, “Colchicine derivatives or pharmaceutically acceptable salts thereof, method for preparing said derivatives, and pharmaceutical composition comprising said derivatives” (priority 2010, dated 2015)
Several values for one entry are separate records, joined by “and”; a condition that tells them apart may be missing. Equal entries are not always repeated. Entries after “also recorded” stand apart in the source; their conditions may differ.

Columns and labels:
[1] = system: Wistar rat (recipient) with transplanted Lewis rat heart; assay: Allogeneic heart transplantation (abdominal heterotopic, Lewis donor to Wistar recipient); format: in vivo
Description: Hearts of 8-week-old Lewis rats (donor) weighing about 250 g were extracted and performed abdominal heterotopic heart transplantation into the abdominal cavity of 8-week-old Wistar rat (recipient) weight about 300 g by cross-clamping caudal vena cava and the abdominal aorta of recipient both proximally and distally to the anastomotic site.
The heart rate of each rat in an untreated control group and the experimental groups was measured by abdominal palpation from the date of the heart transplant, and the heart rate was classified as ++++ (strong and fast heartbeat), +++ (strong or fast heartbeat), ++ (faint and slow but distinct heartbeat), + (faint but steady heartbeat), and ±0 (intermittent heartbeat).

[2] = system: streptozotocin induced diabetic Fischer 344 rats with transplanted Lewis rat islet cells; assay: Allogeneic pancreatic islet cell transplantation - single intraperitoneal administration; format: in vivo
Description: (§1) Streptozotocin is a drug that destroys pancreatic islet cells to induce diabetes and is used to create experimental diabetic animal models. Allogeneic islets were transplanted into the livers of streptozotocin induced diabetic rat by injection into the portal vein. The functioning of transplanted islets was assessed by daily measurements of blood glucose levels. Islets were considered rejected when the blood glucose level was 200 mg/dl on two consecutive days.
(§2) 35 mg/kg of streptozotocin (50 mg/mL) dissolved in a 0.1 M citrate buffer solution (pH 4.5) was intraperitoneally injected into 8-week-old male Fischer 344 rats (F344) weighing about 200 to 220 g. Then, the blood glucose level was measured after 1 week, and the first day when the blood glucose level increased over 300 mg/dl and the increase was repeated more than twice was considered as the date of diagnosis of diabetes. The rats were used in transplantation 3 weeks after the administration of streptozotocin.
(§3) Pancreases of 8-week-old male Lewis rats were extracted on the 3 weeks after the diabetes was induced in Fischer rats, and islet cells were isolated. The isolated islet cells were cultured in a CO2 incubator at 37° C. for a day, and the cultured islet cells were transplanted into the diabetic Fischer rats.
Cyclosporin (5 mg/kg), colchicine (10 μg/kg and 40 μg/kg), and colchicine derivative compounds (compounds 1, 7, 9, 14, 15, 17, 18, 22, and 23; 50 μg/kg) were administered to the Fischer rats, to which the islet cells were transplanted, for 14 days from the date of transplantation, and the maintenance of blood glucose levels was examined until rejection occurred from the date of transplantation.

[3] = system: streptozotocin induced diabetic Fischer 344 rats with transplanted Lewis rat islet cells; assay: Allogeneic pancreatic islet cell transplantation - combined intraperitoneal administration; format: in vivo; conditions: for Average number of days for which islet cell function was maintained / Number of days for which islet cell function was maintained (individual rats): i.p. for 14 days
Description: as §1, §2, §3
However, considering the interaction between the two drugs, the two drugs were introduced in different syringes and injected to right and left sides of the abdominal cavity, respectively, and the measurement results are shown in the following table 4.

[4] = system: spleen cells of rats; assay: Cytotoxicity test in rat spleen cells (CCK, absorbance at 450 nm); format: cell-based; conditions: 72 hours, at concentrations of 100 ng to 10000 ng/mL
Description: Cytotoxicity test was performed to determine the toxicity of immunosuppressant candidate materials by mixing the immunosuppressant candidate materials with spleen cells of rats in culture media and measuring the degree of toxicity in the cells. […] The concentrations of the drugs were 0.1, 1, 10, 100, 1000, 10000, and 100000 ng/mL. The cells were cultured in a CO2 incubator for 72 hours, and then each well was treated with 10 μl of CCK-SK (Dojindo, Japan). Subsequently, the cells were cultured again in the CO2 incubator for 4 hours, and then the absorbance (O.D. value) was measured at 450 nm using a spectrophotometer.

[5] = system: streptozotocin induced diabetic Fischer 344 rats with transplanted Lewis rat islet cells; assay: Allogeneic pancreatic islet cell transplantation - continuous combined intraperitoneal administration; format: in vivo
Description: as §1, §2, §3

[6] = 10 μg/kg intravenously for 14 days
[7] = 40 μg/kg intravenously for 14 days
[8] = 40 μg/kg intravenously for 14 days, * = death
[9] = single administration, 10 μg/kg i.p. for 14 days
[10] = single administration, 40 μg/kg i.p. for 14 days
[11] = single administration, 40 μg/kg i.p. for 14 days, * = death
[12] = 10 μg/kg combined with CsA (5 mg/kg)
[13] = 50 μg/kg combined with CsA (5 mg/kg)
[14] = single administration, 50 μg/kg i.p. for 14 days
[15] = CsA (5 mg/kg) & Compound 14 (40 μg/kg) for 2 weeks, then continuously injected
[16] = CsA (5 mg/kg) & Compound 14 (500 μg/kg) for 2 weeks, then continuously injected
[17] = CsA (5 mg/kg) & Compound 14 (500 μg/kg) for 2 weeks, then only CsA (5 mg/kg)
[18] = CsA (5 mg/kg) & Compound 14 (500 μg/kg) for 2 weeks, then only compound 14 (500 μg/kg)
[19] = CsA (5 mg/kg) & Compound 14 (500 μg/kg) injected for 2 weeks

COc1cc2c(c(OC)c1OC)-c1ccc(OC)c(=O)cc1[C@@H](NC(C)=O)CC2 [Colchicine, colchicine]
Average number of days for which heart rate was kept [1, 6]: >70 ± 100.5 days
Number of days for which heart rate was kept (individual rats) [1, 6]: 12 day (2×) and > 186 day
Number of days for which heart rate was kept (individual rats) ([1]; 10 μg/kg intravenously for 14 days, listed as colchicine): 12 day and over 186 day
Average number of days for which heart rate was kept [1, 7]: >73.3 ± 85.4 days
Number of days for which heart rate was kept (individual rats) [1, 8]: 13 days and 14 days and > 32 days and > 187 days
Number of days for which heart rate was kept (individual rats) ([1]; 40 μg/kg intravenously for 14 days, * = death, listed as colchicine): 13 day and 14 day and over 187 day
death of rats ([2]; 40 μg/kg alone, four rats, listed as colchicines): two of the four rats were dead; also recorded: one rat was dead suddenly after 9 days
weight reduction ([2]; 40 μg/kg alone, on the second day, the two rats that died): 15%
difference from the control group in maintenance of blood glucose levels ([2]; single administration): no significant differences from the control group
Average number of days for which islet cell function was maintained [2, 9]: 5 days
Number of days for which islet cell function was maintained (individual rats) [2, 9]: 5, 5 day
Average number of days for which islet cell function was maintained [2, 10]: 6 days
Number of days for which islet cell function was maintained (individual rats) [2, 11]: 2 day (2×) and 6 day and 9 day
Number of days for which islet cell function was maintained (individual rats) ([2]; single administration, 40 μg/kg i.p. for 14 days, * = death, listed as colchicines): 6 days
Average number of days for which islet cell function was maintained [3, 12]: 8 days
Average number of days for which islet cell function was maintained ([3]; 10 μg/kg combined with CsA (5 mg/kg), listed as colchicine): 8 days
increase of days of islet cell function compared to the single administration ([3]; 10 μg/kg combined with cyclosporin A (5 mg/kg)): about 3 days

COc1cc2c(c(OC)c1OC)-c1ccc(OC)c(=O)cc1C(NC(=O)OCc1ccccc1)CC2 (centres unmarked) [Compound 1, (1,2,3,10-tetramethoxy-9-oxo-5,6,7,9-tetrahydro-benzo[a]heptalen-7-yl)-carbamic acid benzyl ester]
cytotoxicity [4]: no cytotoxicity
Average number of days for which islet cell function was maintained [3, 13]: 27 days
Number of days for which islet cell function was maintained (individual rats) [3, 13]: 27, 27 day

COc1ccc(COC(=O)NC2CCc3cc(OC)c(OC)c(OC)c3-c3ccc(OC)c(=O)cc32)cc1 (centres unmarked) [Compound 7, (1,2,3,10-tetramethoxy-9-oxo-5,6,7,9-tetrahydro-benzo[a]heptalen-7-yl)-carbamic acid 4-methoxy benzyl ester]
cytotoxicity [4]: no cytotoxicity
Average number of days for which islet cell function was maintained [2, 14]: 5.7 ± 1.16 days
Number of days for which islet cell function was maintained (individual rats) [2, 14]: 5 day (2×) and 7 day
Average number of days for which islet cell function was maintained [3, 13]: >61.6 days
Average number of days for which islet cell function was maintained ([3]; 100 μg/kg combined with CsA (5 mg/kg)): >72 days

COc1cc2c(c(OC)c1OC)-c1ccc(OC)c(=O)cc1C(NC(=O)OCc1ccc(C(C)C)cc1)CC2 (centres unmarked) [Compound 9, (1,2,3,10-tetramethoxy-9-oxo-5,6,7,9-tetrahydro-benzo[a]heptalen-7-yl)-carbamic acid 4-isopropyl benzyl ester]
cytotoxicity [4]: no cytotoxicity
Average number of days for which islet cell function was maintained [2, 14]: 5.7 ± 0.58 days
Number of days for which islet cell function was maintained (individual rats) [2, 14]: 5 days to days and 5 day and 6 day
Average number of days for which islet cell function was maintained [3, 13]: >55.7 days

COc1cc2c(c(OC)c1OC)-c1ccc(OC)c(=O)cc1C(NC(=O)OCC1c3ccccc3-c3ccccc31)CC2 (centres unmarked) [Compound 14, (1,2,3,10-tetramethoxy-9-oxo-5,6,7,9-tetrahydro-benzo[a]heptalen-7-yl)-carbamic acid 9H-fluoren-9-ylmethyl ester]
cytotoxicity [4]: no cytotoxicity
Average number of days for which heart rate was kept [1, 6]: >107 ± 86.6 days
Number of days for which heart rate was kept (individual rats) [1, 6]: 9 day and over 139 day and over 173 day and > 139 day and > 173 day
Average number of days for which heart rate was kept [1, 7]: >173.5 ± 0.7 days
Number of days for which heart rate was kept (individual rats) [1, 8]: over 173 day and > 174 day and > 173 day
Average number of days for which islet cell function was maintained [2, 9]: 5.5 ± 0.71 days
Number of days for which islet cell function was maintained (individual rats) [2, 9]: 5, 5 day
Average number of days for which islet cell function was maintained [2, 10]: 6.5 ± 0.71 days
Number of days for which islet cell function was maintained (individual rats) [2, 11]: 6 days and 7 days
Average number of days for which islet cell function was maintained [3, 12]: 28.7 days
Average number of days for which islet cell function was maintained ([3]; 40 μg/kg combined with CsA (5 mg/kg)): >61.8 days
Average number of days for which islet cell function was maintained [5, 15]: >63 ± 9.9 days
Number of days for which islet cell function was maintained (individual rats) [5, 15]: 56 days and > 70 days
Average number of days for which islet cell function was maintained [5, 16]: 67.7 ± 24.0 days
Number of days for which islet cell function was maintained (individual rats) [5, 16]: 40 days and 81 days and 82 days
Average number of days for which islet cell function was maintained [5, 17]: 48.5 ± 12.0 days
Number of days for which islet cell function was maintained (individual rats) [5, 17]: 40 days and 57 days
Average number of days for which islet cell function was maintained [5, 18]: 52.7 ± 52.3 days
Number of days for which islet cell function was maintained (individual rats) [5, 18]: 20 days and 25 days and 113 days
Average number of days for which islet cell function was maintained [5, 19]: 29 ± 3.61 days
Number of days for which islet cell function was maintained (individual rats) [5, 19]: 25 days and 30 days and 32 days
islet cell function improved, times compared to 2 weeks combined administration only ([5]; two drugs continuously administered together after combined administration for 2 weeks): about 2.3 times

COc1cc2c(c(OC)c1OC)-c1ccc(OC)c(=O)cc1C(NC(=O)OCC1c3ccccc3-c3cccc(C)c31)CC2 (centres unmarked) [Compound 15, (1,2,3,10-tetramethoxy-9-oxo-5,6,7,9-tetrahydro-benzo[a]heptalen-7-yl)-carbamic acid 1-methyl-9H-fluoren-9-ylmethyl ester]
cytotoxicity [4]: no cytotoxicity
Average number of days for which islet cell function was maintained [3, 13]: 24 days
Number of days for which islet cell function was maintained (individual rats) [3, 13]: 24, 24 day

COc1cc2c(c(OC)c1OC)-c1ccc(OC)c(=O)cc1C(NC(=O)OCC1c3cc(C(C)(C)C)ccc3-c3ccc(C(C)(C)C)cc31)CC2 (centres unmarked) [Compound 17, (1,2,3,10-tetramethoxy-9-oxo-5,6,7,9-tetrahydro-benzo[a]heptalen-7-yl)-carbamic acid 2,7-di-tert-butyl-9H-fluoren-9-ylmethyl ester]
cytotoxicity [4]: no cytotoxicity
Average number of days for which islet cell function was maintained [3, 13]: 36.5 days

COc1cc2c(c(OC)c1OC)-c1ccc(OC)c(=O)cc1C(NC(=O)OCCC1c3ccccc3-c3ccccc31)CC2 (centres unmarked) [Compound 18, (1,2,3,10-tetramethoxy-9-oxo-5,6,7,9-tetrahydro-benzo[a]heptalen-7-yl)-carbamic acid 2-(9H-fluoren-9-yl)-ethyl ester]
cytotoxicity [4]: no cytotoxicity
Average number of days for which islet cell function was maintained [3, 13]: 28 days

COc1ccc(CCC(=O)NC2CCc3cc(OC)c(OC)c(OC)c3-c3ccc(OC)c(=O)cc32)cc1 (centres unmarked) [Compound 22, 3-(4-methoxy-phenyl)-N-(1,2,3,10-tetramethoxy-9-oxo-5,6,7,9-tetrahydro-benzo[a]heptalen-7-yl)-propionamide]
cytotoxicity [4]: no cytotoxicity
Average number of days for which islet cell function was maintained [3, 13]: 20.7 days

COc1cc2c(c(OC)c1OC)-c1ccc(OC)c(=O)cc1C(NC(=O)CC1c3ccccc3-c3ccccc31)CC2 (centres unmarked) [Compound 23, 2-(9H-fluoren-9-yl)-N-(1,2,3,10-tetramethoxy-9-oxo-5,6,7,9-tetrahydro-benzo[a]heptalen-7-yl)-acetamide]
cytotoxicity [4]: no cytotoxicity
Average number of days for which islet cell function was maintained [3, 13]: 26.5 days
